From patent US20120128646A1, “METHODS AND COMPOSITIONS FOR THE TREATMENT OF AUTOIMMUNE DISEASE” (priority 2009, published 2012)
Entries after “also recorded” stand apart in the source; their conditions may differ.

Tests used:
[1] = tested on: T cell clone BDC-10.1; assay: IFNγ production by T cell clone in antigen assay (ELISA); assay type: cell-based, NOD mouse; details: for Stimulation of T cell clone BDC-10.1 (IFNγ response), result in words: peptide or preparation as antigen
Text: (§1) The T cell clones are maintained in culture by periodic re-stimulation with irradiated NOD splenocytes and islet cells or β-membrane. To assay for antigen, resting responder T cells (i.e., for example, the cells at the end of the two-week restimulation period) are co-cultured for 24 hr with elicited peritoneal macrophages (PEC) as APC and either a test sample or control antigen. Control antigen will be in the form of islet cells or the whole-cell membrane fraction (i.e., for example, a β-membrane fraction). As described above, unlysed β-membrane is stored in aliquots at −80° C. for this purpose. Negative controls include responder cells alone and responders plus APC.
(§2) At the end of the culture period, supernatants are collected from the cultures and IFNγ production is measured by ELISA. Wells positive for IFNγ are indicative of T cells responding to antigen; the amount of cytokine produced is calculated from a standard curve and is directly proportional to the amount of antigen present.
(§3) Antigenicity of islet cells, cellular and biochemical fractions, peptides, or insect cells expressing IA^g7-peptide constructs, was assessed through responses of T cell clones or hybridomas made by fusing T cell clones to the TCR^− version of T cell lymphoma, BW5147. White et al., “Two better cell lines for making hybridomas expressing specific T cell receptors” J Immunol 143:1822-1825 (1989). T cell clone cultures typically contained 2×10^4 responder T cells, 2.5×10^4 NOD peritoneal exudate cells (PEC) as APC, and antigen (SEC/IEX fractions, peptides, islet cells); all assays were performed with β-Mem as a positive control. IFNγ was measured by ELISA of culture supernatants. For cultures with T cell hybridomas, antigen/MHC activation was assessed by IL-2 production measured by a bioassay using the HT-2 T cell line. Walker et al., “Antigenspecific. I region-restricted interactions in vitro between tumor cell lines and T cell hybridomas” J Immunol 128:2164-2169 (1982). Synthetic peptides were either produced in the Molecular Resource Center at National Jewish Health or obtained from CHI Scientific, Maynard, Mass.

[2] = tested on: T cell clone BDC-2.5; assay: as above; assay type: cell-based, NOD mouse; details: for Stimulation of T cell clone BDC-2.5 (IFNγ response), result in words: peptide or preparation as antigen
Text: as §1, §2, §3

[3] = tested on: T cell clone BDC-5.10.3; assay: as above; assay type: cell-based, NOD mouse; details: for Stimulation of T cell clone BDC-5.10.3 (IFNγ response), result in words: peptide or preparation as antigen
Text: as §1, §2, §3

[4] = tested on: soluble IA^g7; assay: Peptide binding to IA^g7: competition with biotinylated HEL peptide; design: species or system NOD mouse; details: competition with biotinylated pHEL 11 μM, pH 5.6, overnight
Text: FIG. 15B: A series of ChgA peptides tested for their ability to compete with a biotinylated HEL peptide for binding to soluble IA^g7. pS3-positive control peptide. IE^k moth cytochrome c-negative control peptide. N=2. Y axis: Percent of IA^g7-bound biotinylated HEL peptide as compared to IE^k. X axis: Log concentration of inhibitor peptide.
In order to confirm the unique binding register of the WE14 peptide, a series of peptides comprising N-terminal extensions and/or C-terminal deletions of WE14 were evaluated for their ability to stimulate the BDC-2.5 T cell clone (FIG. 6a) or to bind to IA^g7. See, FIG. 15A. […] See, FIG. 15B. Further, a pS3 mimotope was used as the positive control peptide and an irrelevant peptide from moth cytochrome c, pMCC, was the negative control peptide. The data were analyzed to determine the stimulatory or binding capacity of the peptides relative to WE14. See, FIG. 15C.
Soluble IA^g7 with covalently attached pHEL was treated with thrombin to cleave the linker attaching the peptide to the IA^g7 β chain. Kozono et al., “Production of soluble MHC class II proteins with covalently bound single peptides” Nature 369:151-154 (1994). Samples (0.5 μg) were incubated with a soluble biotinylated version of pHEL, Biotin-GGGMKRHGLDNYRGYSL (SEQ ID NO: 56) (11 μM), either alone or in the presence of various concentrations of potential competitors peptides, in 15 μL of pH 5.6 buffer overnight at room temperature. The sample was diluted to 100 μL of PBS in a well of a 96-well ELISA plate coated with an anti-IA^g7 monoclonal antibody, OX-6 (BD Pharmaceuticals). The captured IA^g7 was washed several times with PBS and the bound bio-pHEL detected with alkaline phosphatase coupled Extravadin (Sigma) and […].

[5] = tested on: diabetogenic T cells; assay: Immunization of BDC-2.5 TCR-Tg NOD mice with WE14; spleen cell IFNγ ELISA; assay type: in vivo; details: WE14 50 mg in CFA day 0, boost in IFA day 7; spleen cells day 14, WE14 100 mg or 200 mg as antigen
Protocol: In one experiment, BDC-2.5 TCR-Tg NOD mice were immunized with WE14 ([…]) in complete Freund's adjuvant (CFA) at day 0 and boosted with WE14 in incomplete Freund's adjuvant (IFA) at day 7. Spleen cells were harvested 14 days after the initial immunization and assayed by ELISA with WE14 (100 mg or 200 mg) as antigen. […] See, FIG. 16.

[6] = tested on: CD4+ and CD8+ T cells; assay: Immunization of NOD mice with WE14; intracellular IFNγ of pLN and spleen T cells by flow cytometry; assay type: in vivo; details: WE14 100 mg + IFA i.p. day 0, boost day 30; pLN and spleen at seven weeks
Protocol: In another experiment, NOD mice (3-4 wks old) were immunized intraperitoneally (i.p.) with WE14 (100 mg+IFA) at day 0 and boosted with the same dose of peptide 30 days later. Seven weeks after the initial immunization, pancreatic lymph nodes (pLN) and spleen were harvested and single cell suspensions of these organs were made. The cells were stimulated with anti-CD3 ([…]) and anti-CD28 (2 mg/ml) for 48 hr. PMA/ionomycin and Golgiplug were added for an additional 4 hr. Cells were harvested and analyzed for intracellular IFNγ production by flow cytometry. […] See, FIG. 17.

[7] = tested on: NOD.scid recipients; assay: Adoptive co-transfer of diabetes to NOD.scid recipients with spleen cells from WE14-immunized NOD mice; assay type: in vivo; details: 1×10^7 WE14 SC co-transferred i.v. with 1×10^7 diabetic NOD spleen cells
Protocol: In another experiment, NOD mice (3-4 wks old) were immunized with WE14+IFA and 13 days later, single cell suspensions of the spleens (WE14 SC) were prepared. WE14 SC (1×10^7) were co-transferred with spleen cells obtained from a diabetic NOD mouse (1×10^7) into adult NOD.scid recipients by Intravenous (i.v.) injection. Urine glucose was monitored daily following cell transfer and hyperglycemia was confirmed by blood glucose readings.

Sequence: WSRMDQLAKELTAE (listed as Mus musculus) [WE14, natural cleavage product of ChgA, aa 359-372]
- Potency in activating the BDC clones, fold less potent than the pS3 mimotope ([1]; BDC-10.1, synthetic peptide): at least 1000 fold
- Stimulation of T cell clone BDC-10.1 (IFNγ response), result in words [1]: stimulated; also recorded: considerably less potent
- Stimulation of T cell clone BDC-10.1 (IFNγ response), result in words ([1]; listed as WE-14): stimulated
- Antigen response as percentage of maximal IFN-γ response [% Max] ([2]; 100 mg/ml peptide, 100 mg/ml β-membrane = 100%): ~15%
- Potency in activating the BDC clones, fold less potent than the pS3 mimotope ([2]; BDC-2.5, synthetic peptide): at least 1000 fold
- Stimulation of T cell clone BDC-2.5 (IFNγ response), result in words [2]: weak stimulator; also recorded: weakly stimulated; also recorded: considerably less potent; also recorded: only very weakly
- Stimulation of T cell clone BDC-2.5 (IFNγ response), result in words ([2]; listed as WE-14): stimulated
- Potency in activating the BDC clones, fold less potent than the pS3 mimotope ([3]; BDC-5.10.3, synthetic peptide): at least 1000 fold
- Stimulation of T cell clone BDC-5.10.3 (IFNγ response), result in words [3]: stimulated; also recorded: considerably less potent
- Stimulation of T cell clone BDC-5.10.3 (IFNγ response), result in words ([3]; listed as WE-14): stimulated
- IA^g7 binding, result in words [4]: can bind
- IFNγ response of the diabetogenic T cells after immunization [5]: considerably reduced
- Inflammatory response (intracellular IFNγ) of CD4+ and CD8+ T cells in lymphoid organs [6]: suppress
- Onset of disease induced by diabetic NOD spleen cells [7]: considerably delayed
